Laboratory results taken from patent US11040954B1, “CXCR3 receptor agonists” (RECEPTOS LLC, priority 2016, dated 2021).
pEC50: −log10 of the molar value.

Each compound was assayed against T1, CXCR3 (Homo sapiens, UniProt P49682) (assay: CXCR3 cAMP agonist assay (cAMP Hunter CHOK1 CXCR3 Gi cell line, forskolin-stimulated, HitHunter cAMP detection)). Details: cAMP Hunter CHOK1 CXCR3 Gi cells, 20 μM forskolin, 30 minutes; read-out: Activity (CXCR3 cAMP agonist assay compound EC50).
T1 construct: host or cells: CHO-K1 (cAMP Hunter CHOK1 CXCR3 Gi cell line)
T1 sequence (P49682 1-368): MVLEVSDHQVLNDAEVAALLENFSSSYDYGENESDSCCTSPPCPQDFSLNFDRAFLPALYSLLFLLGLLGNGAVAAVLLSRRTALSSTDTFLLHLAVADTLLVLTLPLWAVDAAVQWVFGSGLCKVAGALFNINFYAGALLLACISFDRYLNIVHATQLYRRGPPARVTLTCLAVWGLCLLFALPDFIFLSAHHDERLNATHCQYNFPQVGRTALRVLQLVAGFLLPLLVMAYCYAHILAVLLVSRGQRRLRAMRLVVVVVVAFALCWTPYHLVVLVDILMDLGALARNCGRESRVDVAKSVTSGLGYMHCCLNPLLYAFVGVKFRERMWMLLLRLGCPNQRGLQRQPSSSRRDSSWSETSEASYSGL
Assay type: cell-based
In short: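 CHOK1 cells expressing human CXCR3 with Gi coupling, 50,000/well in suspension in HBSS/10 mM HEPES/0.1% BSA pH 7.4, were co-treated with 20 μM forskolin and compound (12-point, 0-10 μM, 1% DMSO) for 30 min. cAMP was read by enzyme-complementation luminescence; CXCL11 dose response set maximum efficacy.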

Row | Structure (SMILES) | pEC50
1 | NCC[C@H](NC(=O)[C@@H]1Cc2ccccc2CN1C(=O)CCC(=O)c1ccccc1)C(=O)Nc1ccccc1C(F)(F)F [Compound 14-15] | 6.30 to 6.60
2 | NCC[C@H](NC(=O)[C@@H]1Cc2ccccc2CN1C(=O)CCC(=O)c1ccccc1)C(=O)Nc1cc(Cl)ccc1F [Compound 2-37] | 6.60 to 7.30
3 | NCC[C@H](NC(=O)[C@@H]1Cc2ccccc2CN1C(=O)CCC(=O)c1ccccc1)C(=O)Nc1ccc(Cl)c(C(F)(F)F)c1 [Compound 2-4] | 6.60 to 7.30
4 | Cc1cc(NC(=O)[C@H](CCN)NC(=O)[C@@H]2Cc3ccccc3CN2C(=O)CCC(=O)N2CCOCC2)ccc1Cl [Compound 10-2] | 6.60 to 7.30
5 | Cc1cc(NC(=O)[C@H](CCN)NC(=O)[C@@H]2Cc3ccccc3CN2C(=O)CCC(=O)N2CCCOCC2)ccc1Cl [Compound 12-20] | > 7.30
6 | Cc1cc(NC(=O)[C@H](CCN)NC(=O)[C@@H]2Cc3ccccc3CN2C(=O)CCC(=O)N2CCCC(F)C2)ccc1Cl (stereo partly drawn) [Compound 12-63] | > 7.30
7 | CC[C@H]1CCCCN1C(=O)CCC(=O)N1Cc2ccccc2C[C@H]1C(=O)N[C@@H](CCN)C(=O)Nc1ccc(Cl)c(C)c1 [Compound 12-97] | > 7.30
8 | NCC[C@H](NC(=O)[C@@H]1Cc2ccccc2CN1C(=O)CCC(=O)c1ccccc1)C(=O)Nc1ccc(Cl)c(F)c1 [Compound 2-12] | 6.30 to 6.60
9 | NC(=O)NCCCC[C@H](NC(=O)[C@@H]1Cc2ccccc2CN1C(=O)CCC(=O)c1ccccc1)C(=O)Nc1ccc(Cl)c(Cl)c1 [Compound 3-6] | 6.30 to 6.60
10 | Cc1cc(NC(=O)[C@H](CCN)NC(=O)[C@@H]2Cc3ccccc3CN2C(=O)CCC(=O)N2CCN(C)[C@@H](C)C2)ccc1Cl [Compound 12-36] | > 7.30
11 | Cc1cc(NC(=O)[C@H](CCN)NC(=O)[C@@H]2Cc3ccccc3CN2C(=O)CCC(=O)NCC2CCOCC2)ccc1Cl [Compound 12-12] | < 6.30
12 | Cc1cc(OC(F)(F)F)c(NC(=O)[C@H](CCN)NC(=O)[C@@H]2Cc3ccccc3CN2C(=O)CCC(=O)c2ccccc2)cc1Cl [Compound 14-24] | > 7.30
13 | CCc1cccc(NC(=O)[C@H](CCN)NC(=O)[C@@H]2Cc3ccccc3CN2C(=O)CCC(=O)c2ccccc2)c1OC [Compound 13-5] | 6.60 to 7.30
14 | CC[C@@H]1CCCCN1C(=O)CCC(=O)N1Cc2ccccc2C[C@H]1C(=O)N[C@@H](CCN)C(=O)Nc1ccc(Cl)c(C)c1 [Compound 12-112] | > 7.30
15 | Cc1cccc(F)c1NC(=O)[C@H](CCN)NC(=O)[C@@H]1Cc2ccccc2CN1C(=O)CCC(=O)c1ccccc1 [Compound 14-5] | 6.30 to 6.60
16 | Cc1cc(NC(=O)C(NC(=O)[C@@H]2Cc3ccccc3CN2C(=O)CCC(=O)c2ccccc2)C2CCNCC2)ccc1Cl (mixture of isomers) [Compound 4-7] | < 6.30
17 | Cc1cc(NC(=O)[C@H](CCN)NC(=O)[C@@H]2Cc3ccccc3CN2C(=O)CCC(=O)N2CCCCC2)ccc1Cl [Compound 10-1, (S)—N—((S)-4-amino-1-((4-chloro-3-methylphenyl)amino)-1-oxobutan-2-yl)-2-(4-oxo-4-(piperidin-1-yl)butanoyl)-1,2,3,4-tetrahydroisoquinoline-3-carboxamide] | > 7.30
18 | Cc1cc(NC(=O)[C@H](CCCCN)NC(=O)[C@@H]2Cc3ccccc3CN2C(=O)CCC(=O)c2ccccc2)ccc1Cl (stereo in doubt) [Compound 4-2, (S)—N—((S)-6-amino-1-((4-chloro-3-methylphenyl)amino)-1-oxohexan-2-yl)-2-(4-oxo-4-phenylbutanoyl)-1,2,3,4-tetrahydroisoquinoline-3-carboxamide] | 6.30 to 6.60
19 | Cc1cc(NC(=O)[C@H](CCN)NC(=O)[C@@H]2Cc3ccccc3CN2C(=O)CCC(=O)N2CCCC2c2ccccc2)ccc1Cl (stereo partly drawn) [Compound 12-53] | > 7.30
20 | Cc1cc(NC(=O)[C@H](CCN)NC(=O)[C@@H]2Cc3ccccc3CN2C(=O)CCC(=O)N2CCOCC2(C)C)ccc1Cl [Compound 12-23] | > 7.30
21 | Cc1cc(NC(=O)[C@H](CCN)NC(=O)[C@@H]2Cc3ccccc3CN2C(=O)CCC(=O)N2CCC(C)(C)C2)ccc1Cl [Compound 12-29] | > 7.30
22 | Cc1cc(NC(=O)[C@H](CCN)NC(=O)[C@@H]2Cc3ccccc3CN2C(=O)CCC(=O)N2CCCC2C#N)ccc1Cl (stereo partly drawn) [Compound 12-77] | > 7.30
23 | COc1cc(C)c(F)cc1NC(=O)[C@H](CCN)NC(=O)[C@@H]1Cc2ccccc2CN1C(=O)CCC(=O)c1ccccc1 [Compound 2-71] | 6.60 to 7.30
24 | Cc1ccc(OC(F)(F)F)c(NC(=O)[C@H](CCN)NC(=O)[C@@H]2Cc3ccccc3CN2C(=O)CCC(=O)c2ccccc2)c1 [Compound 14-25] | > 7.30
25 | CC[C@H]1CN(C(=O)CCC(=O)N2Cc3ccccc3C[C@H]2C(=O)N[C@@H](CCN)C(=O)Nc2ccc(Cl)c(C)c2)CCN1C [Compound 12-150] | > 7.30
26 | Cc1c(F)cc(NC(=O)[C@H](CCN)NC(=O)[C@@H]2Cc3ccccc3CN2C(=O)CCC(=O)c2ccccc2)cc1Cl [Compound 4-19] | > 7.30
27 | Cc1cccc(Cl)c1NC(=O)[C@H](CCN)NC(=O)[C@@H]1Cc2ccccc2CN1C(=O)CCC(=O)c1ccccc1 [Compound 14-10] | < 6.30
28 | Cc1cc(NC(=O)[C@H](CCN)NC(=O)[C@@H]2Cc3ccccc3CN2C(=O)CCC(=O)N2CCN(c3ncccn3)CC2)ccc1Cl [Compound 12-107] | 6.60 to 7.30

Continued, values first:

Row | pEC50 | Structure (SMILES)
29 | > 7.30 | CN(C)[C@@H]1CCN(C(=O)CCC(=O)N2Cc3ccccc3C[C@H]2C(=O)N[C@@H](CCN)C(=O)Nc2ccc(Cl)c(Cl)c2F)C1 [Compound 15-31]
30 | > 7.30 | CC(C)CC1CCCCN1C(=O)CCC(=O)N1Cc2ccccc2C[C@H]1C(=O)N[C@@H](CCN)C(=O)Nc1ccc(Cl)c(Cl)c1F (stereo partly drawn) [Compound 15-20]
31 | 6.60 to 7.30 | CCN(CC(C)(C)C)C(=O)CCC(=O)N1Cc2ccccc2C[C@H]1C(=O)N[C@@H](CCN)C(=O)Nc1ccc(Cl)c(Cl)c1F [Compound 15-40]
32 | > 7.30 | Cc1cc(NC(=O)[C@H](CCNC(=O)CN)NC(=O)[C@@H]2Cc3ccccc3CN2C(=O)CCC(=O)N2CCCCC2)ccc1Cl [Compound 31-1, (S)—N—((S)-4-(2-aminoacetamido)-1-((4-chloro-3-methylphenyl)amino)-1-oxobutan-2-yl)-2-(4-oxo-4-(piperidin-1-yl)butanoyl)-1,2,3,4-tetrahydroisoquinoline-3-carboxamide]
33 | > 7.30 | CC1(C)CCCCN1C(=O)CCC(=O)N1Cc2ccccc2C[C@H]1C(=O)N[C@@H](CCN1CCC(O)CC1)C(=O)Nc1ccc(Cl)c(Cl)c1F [Compound 26-1, (S)—N—((S)-1-((3,4-dichloro-2-fluorophenyl)amino)-4-(4-hydroxypiperidin-1-yl)-1-oxobutan-2-yl)-2-(4-(2,2-dimethylpiperidin-1-yl)-4-oxobutanoyl)-1,2,3,4-tetrahydroisoquinoline-3-carboxamide]
34 | > 7.30 | NCC[C@H](NC(=O)[C@@H]1Cc2ccccc2CN1C(=O)CCC(=O)N1CC2CCCCC2C1)C(=O)Nc1ccc(Cl)c(Cl)c1F (stereo partly drawn) [Compound 15-54]
35 | 6.60 to 7.30 | Cc1c(Cl)ccc(NC(=O)C(CCN2CCC(O)CC2)NC(=O)[C@@H]2Cc3ccccc3CN2C(=O)CCC(=O)c2ccccc2)c1Cl (mixture of isomers) [Compound 25-1, (3S)—N-(1-((2,4-dichloro-3-methylphenyl)amino)-4-(4-hydroxypiperidin-1-yl)-1-oxobutan-2-yl)-2-(4-oxo-4-phenylbutanoyl)-1,2,3,4-tetrahydroisoquinoline-3-carboxamide]
36 | 6.30 to 6.60 | O=C(CCC(=O)N1Cc2ccccc2C[C@H]1C(=O)N[C@@H](CCN1CCCC(F)(F)C1)C(=O)Nc1ccc(Cl)c(Cl)c1F)c1ccccc1 [Compound 23-5]
37 | 6.30 to 6.60 | CCN(CC)C(=O)CCC(=O)N1Cc2ccccc2C[C@H]1C(=O)N[C@@H](CCN)C(=O)Nc1ccc(Cl)c(Cl)c1F [Compound 15-42]
38 | > 7.30 | CC1(C)CCN(C(=O)CCC(=O)N2Cc3ccccc3C[C@H]2C(=O)N[C@@H](CCN)C(=O)Nc2ccc(Cl)c(Cl)c2F)CC1 [Compound 15-1, (S)—N—((S)-4-amino-1-((3,4-dichloro-2-fluorophenyl)amino)-1-oxobutan-2-yl)-2-(4-(4,4-dimethylpiperidin-1-yl)-4-oxobutanoyl)-1,2,3,4-tetrahydroisoquinoline-3-carboxamide]
39 | > 7.30 | COCC1CCCCN1C(=O)CCC(=O)N1Cc2ccccc2C[C@H]1C(=O)N[C@@H](CCN)C(=O)Nc1ccc(Cl)c(Cl)c1F (stereo partly drawn) [Compound 15-16]
40 | > 7.30 | NCC[C@H](NC(=O)[C@@H]1Cc2ccccc2CN1C(=O)CCC(=O)N1CCCC(CF)C1)C(=O)Nc1ccc(Cl)c(Cl)c1F (stereo partly drawn) [Compound 15-25]
41 | 6.60 to 7.30 | N#Cc1ccc2c(c1)CN(C(=O)CCC(=O)c1ccccc1)[C@H](C(=O)N[C@@H](CCN)C(=O)Nc1ccc(Cl)c(Cl)c1F)C2 [Compound 30-1, (S)—N—((S)-4-amino-1-((3,4-dichloro-2-fluorophenyl)amino)-1-oxobutan-2-yl)-7-cyano-2-(4-oxo-4-phenylbutanoyl)-1,2,3,4-tetrahydroisoquinoline-3-carboxamide]
42 | > 7.30 | NCC[C@H](NC(=O)[C@@H]1Cc2ccccc2CN1C(=O)CCC(=O)N1CCCC[C@@H]1CO)C(=O)Nc1ccc(Cl)c(Cl)c1F [Compound 15-18]
